Experimental data: US8445502B2, “Pharmaceutical formulations comprising salts of a protein kinase inhibitor and methods of using same” (Astex Pharmaceuticals, Inc., priority 2007, dated 2013)
“Also recorded” adds a separate entry of the source.

Columns and labels:
[1] = system: SF-767 glioblastoma multiforme cells; assay: MTS cell death assay with ionizing radiation; assay type: cell-based
Experimental: SF-767 glioblastoma multiforme cells were treated with MP470 at 1 μM, 800c Gy IR (ionizing radiation), or a combination of both.

[2] = rat, in vivo, iv, 10 mg/kg
Experimental: In the first IV administration study of MP470 free base, six groups of 6 rats were to be exposed to either vehicle alone or MP470 at 10, 20, 40, 80, or 160 mg/kg. Dosing was administered via a tail vein over approximately 30 minutes. Animals were observed immediately and 10 minutes and one hour after dosing, and daily thereafter for 4 additional days. […] Red urine and lethargy were present at 1 hour post dosing, but animals recovered and appeared normal thereafter. […] All other animals were euthanized and necropsied at day 4 appeared normal.

[3] = system: Erk phosphorylation in Panc-1 Pancreas Cancer Cells; assay: Erk phosphorylation after PMA stimulation; assay type: cell-based; conditions: PMA-stimulated cells; compared to PMA alone and PD98059; hydrochloride
Source text: FIG. 11 illustrates the Erk phosphorylation changes in Panc-1 Pancreas Cancer Cells after MP470 hydrochloride exposure
Regulation of Erk phosphorolation—MP470.HCl activity was screened against potential biomarkers, including proteins, such as Erk that are activated downstream of c-Kit. Erk was selected from potential candidate markers to evaluate changes in protein phosphorylation in treated cancer cell lines because MP470 appeared to regulate this event. […] Exposure to PMA is known to rapidly stimulate Erk phosphorylation and was used as a positive control.

SMILES | Increase in cell death over either agent alone ([1]; MP470 1 μM combined with 800c Gy ionizing radiation) | Cell death (MTS assay) ([1]; MP470 at 1 μM alone) | mortality at the low dose [2] | level of Erk phosphorylation (P-Erk) [3]
S=C(NCc1ccc2c(c1)OCO2)N1CCN(c2ncnc3c2oc2ccccc23)CC1 [MP470, 4-[1]benzofuro[3,2-d]pyrimidin-4-yl-N-(1,3-benzodioxol-5-ylmethyl)piperazine-1-carbothioamide] | more than two-fold | will induce cell death | the third rat died after dosing | –
Cl.S=C(NCc1ccc2c(c1)OCO2)N1CCN(c2ncnc3c2oc2ccccc23)CC1 [MP470.HCl, 4-[1]benzofuro[3,2-d]pyrimidin-4-yl-N-(1,3-benzodioxol-5-ylmethyl)piperazine-1-carbothioamide hydrochloride] | – | – | – | reduced the level of Erk phosphorylation; also recorded: reduced the level of P-Erk below that of PD98059
